{
  "source": "patent US20240342120A1",
  "about": "“MULTIPLE MYELOMA TREATMENT” (Vanda Pharmaceuticals Inc., priority 2013, published 2024)",
  "type_in_all_cases": "cell-based",
  "key": {"CDC2": {"tested_on": "CDC2", "assay": "Affymetrix gene expression, CDC2, cells treated 24 hours", "details": "probe 203214_x_at; human retinal pigment epithelial cell line; 24 hours vs vehicle; Instance ID 10005533", "procedure": "(§1) A human retinal pigment epithelial cell line was treated with trichostatin or vehicle for 24 hours and gene expression for 22,238 probe sets covering 12,490 genes was generated using an Affymetrix instrument."}, "TOP2A": {"tested_on": "TOP2A", "assay": "Affymetrix gene expression, TOP2A, cells treated 24 hours", "details": "human retinal pigment epithelial cell line, 24 hours vs vehicle", "procedure": "as §1"}, "[1]": {"tested_on": "CCNB1, AURKB, CDC2, BIRC5, KIF11, KIF2C, TOP2A, ASPM, CKS1B, and WEE1", "assay": "Affymetrix gene expression, ten-gene summary, cells treated 24 hours", "details": "human retinal pigment epithelial cell line; 24 hours vs vehicle; summary in words of Table 1", "procedure": "as §1"}},
  "data": [
    {"smiles": "CC(/C=C/C(=O)NO)=C\\[C@@H](C)C(=O)c1ccc(N(C)C)cc1", "note": "[trichostatin A, 7-[4-(dimethylamino)phenyl]-N-hydroxy-4,6-dimethyl-7-oxohepta-2,4-dienamide]", "values": [
      {"measurement": "Fold Expression Δ, CDC2", "setting": "CDC2", "value": "−11.83", "unit": "Fold"},
      {"measurement": "Fold Expression Δ, TOP2A", "setting": "TOP2A; probe 201291_s_at, Instance ID 10005533", "value": "−28.22", "unit": "Fold"},
      {"measurement": "Fold Expression Δ, TOP2A", "setting": "TOP2A; probe 201292_at, Instance ID 10005532", "value": "−31.95", "unit": "Fold"},
      {"measurement": "effect on expression of CCNB1, AURKB, CDC2, BIRC5, KIF11, KIF2C, TOP2A, ASPM, CKS1B, and WEE1", "setting": "[1]", "value": "significant downregulation"}
    ]}
  ]
}
